Where two headings read alike, the source gives them in different places.
Assays:
[1] = Oral toxicity (mortality) in the mouse, Table 1; type: in vivo; conditions: mouse, in vivo, po, Swiss mice, 14 days
Description: (§1) The mortality percentages caused by the products of the present invention administered orally to Swiss mice are shown in Table 1. The animals, free of specific pathological organism were housed in an air conditioned room from 24 to 48 hours before the start of the experiments. They were divided up into lots of 5 males and 5 females. With the animals unfed for 24 hours, the substances were administered intragastrically in a base of 6% gum arabic in a volume equal to 0.1 ml for 10 g of animal weight. The mortality was recorded at 14 days.
(§2) % of mortality as a function of the dose

phenylbenzoquinone (PBQ) = experiment: Analgesic activity using phenylbenzoquinone (PBQ) as noxious agent, Table 2; type: in vivo, male Swiss mouse; conditions: for inhibition in vivo at 100 mg/kg / inhibition in vivo at 200 mg/kg / inhibition in vivo at 50 mg/kg: Mus musculus; for inhibition in vivo at 100 mg/kg: read-out: % of analgesic activity, 100 mg/kg, male Swiss mouse, PBQ
Description: The analgesic activity was determined with the male Swiss mouse using phenylbenzoquinone (PBQ) (a variation of the method of Siegmund et al, Proc. Soc. Exp. Med., […], 95, 729-31) as the noxious agent. Twenty-eightminutes after having administered the test products in a suspension in a 6% gum base, the PBQ solution was injected. The mice were then observed ca. 5 mn. for the next five minutes.
% of analgesic activity as a function of
the dose expressed in mg/kg

[2] = system: number of escapes the animal made in 5 minutes; experiment: Escape test, Table 3; type: in vivo, mouse; conditions: 5 min, read-out: % of activity (variation of the number of escapes)
Description: The products of the invention were always administered orally in 6% gum base.
The notation NS signifies that the difference between the results noted for the product and the results noted for the excipient alone is not significant at the threshold 0.05 according to the Student t Test.

[3] = system: stereotype induced by apomorphine; experiment: Antagonism of the stereotype induced by apomorphine, Table 4; type: in vivo; conditions: for % of activity vis-a-vis the stereotype induced by apomorphine: oral; for antagonism vis-a-vis the stereotype with apomorphine: in words
Description: (§3) The psychotropic profile of the present invention products has been characterized with the animals in numerous tests some of whose results are shown hereinafter. The products of the invention were always administered orally in 6% gum base.
% of activity vis-a-vis the stereotype
induced by apomorphine as a function of the
administered dose expressed in mg/kg

[4] = system: ptosis induced by reserpine; experiment: Antagonism of ptosis induced by reserpine, Table 6; type: in vivo; conditions: read-out: % of inhibition of ptosis induced by reserpine
Description: as §3
(§4) Certain tests made it possible to show antidepressive activities. These are tests of antagonism to the effects of reserpine, oxotremorine (according to Everett G. M. et al, Science, 1956, 124, 79 and Levy J. et al, Therapie 1965, 20, 265) and to despair (according to Porsolt P. D. et al, Eur. J. Pharmacol., 1978, 47, 379-91).
% of inhibition of ptosis induced by reserpine
as a function of the dose administered orally

[5] = system: trembling induced by oxotremorine; experiment: Antagonism of trembling induced by oxotremorine, Table 7; type: in vivo; conditions: read-out: % of inhibition of trembling induced by oxotremorine
Description: as §3, §4
% of inhibition of trembling induced by
oxotremorine as a function of the dose
(§5) administered expressed in mg/kg

[6] = system: number of displacements of the animal; experiment: Four plates test (anxiolytic activity), Table 5; type: in vivo; conditions: oral, mouse
Description: as §3
A certain number of products manifest an anxiolytic activity evidenced in the test with the four plates with the mouse (Table 5).
% of increase in the number of displacements of the
animal as a function of the dose expressed in mg/kg

despair = experiment: Test of despair (Porsolt), Table 8; type: in vivo; conditions: oral
Description: as §3, §4
Test of despair: % of antagonism as a function
of the dose administered orally and expressed

[7] = system: salivation induced by pilocarpine; experiment: Inhibition of salivation induced by pilocarpine (anticholinergic activity), Table 9; type: in vivo; conditions: oral
Description: as §3
Certain products manifest an anticholinergic activity evidenced in the inhibition test of salivation induced by pilocarpine (Table 9).
% of inhibition of salivation induced by
pilocarpine as a function of the dose
as §5

Swiss mice = experiment: Oral toxicity (mortality) in the mouse, Table 1; type: in vivo; conditions: 14 days, 20160 min
Description: as §1, §2

[8] = read-out: % of analgesic activity, 200 mg/kg, male Swiss mouse, PBQ
[9] = 100 mg/kg, male Swiss mouse, PBQ

## COc1ccc(C=Nc2cc3c(cc2CCN(C)C)OCO3)cc1 [COR 01 210]
[1]; 750 mg/kg
  mortality at 336 h: 0%
[1]; 1000 mg/kg
  mortality at 336 h: 10%
[1]; 2000 mg/kg
  mortality at 336 h: 20%
Phenylbenzoquinone (PBQ)
  inhibition in vivo at 100 mg/kg: 27%
Phenylbenzoquinone (PBQ); [8]
  inhibition in vivo at 200 mg/kg: 33%
[2]; Mus musculus, po
  change in vivo at 100 mg/kg: -20%
  change in vivo at 150 mg/kg: -26%
  change in vivo at 200 mg/kg: -72%
[3]; 75 mg/kg
  % of activity vis-a-vis the stereotype induced by apomorphine: -33%
[3]; 150 mg/kg
  % of activity vis-a-vis the stereotype induced by apomorphine: -33%
[3]
  antagonism vis-a-vis the stereotype with apomorphine: manifest an antagonism
[4]; po
  change in vivo at 50 mg/kg: -21%
  change in vivo at 100 mg/kg: -38%
[5]; po
  change in vivo at 50 mg/kg: -50%
  change in vivo at 75 mg/kg: -40%
  change in vivo at 100 mg/kg: -50%
  change in vivo at 150 mg/kg: -30%
  change in vivo at 200 mg/kg: -50%

## C(=Nc1cc2c(cc1CCN1CCCC1)OCO2)c1cccnc1 [COR 01 173]
[1]; 500 mg/kg
  mortality at 336 h: 0%
[1]; 1000 mg/kg
  mortality at 336 h: 30%
[2]; 5 mg/kg, oral, mouse, 5 minutes
  change in vivo at 5 mg/kg: -33%
[2]; 25 mg/kg, oral, mouse, 5 minutes
  change in vivo at 25 mg/kg: -13%
[2]; 50 mg/kg, oral, mouse, 5 minutes
  change in vivo at 50 mg/kg: -29%
[2]; 75 mg/kg, oral, mouse, 5 minutes
  change in vivo at 75 mg/kg: -26%
[2]; 100 mg/kg, oral, mouse, 5 minutes
  change in vivo at 100 mg/kg: -50%
[2]; 150 mg/kg, oral, mouse, 5 minutes
  change in vivo at 150 mg/kg: -55%
[2]; 200 mg/kg, oral, mouse, 5 minutes
  change in vivo at 200 mg/kg: -90%
[6]; 10 mg/kg
  % of increase in the number of displacements of the animal: +30%
[6]; 20 mg/kg
  % of increase in the number of displacements of the animal: +47%
[6]; 50 mg/kg
  % of increase in the number of displacements of the animal: +60%
[6]; 75 mg/kg
  % of increase in the number of displacements of the animal: +82%
[4]; 50 mg/kg, oral
  change in vivo at 50 mg/kg: -12%
[4]; 75 mg/kg, oral
  change in vivo at 75 mg/kg: -21%
[4]; 100 mg/kg, oral
  change in vivo at 100 mg/kg: -23%
[5]; oral
  change in vivo at 25 mg/kg: -20%
[5]; 50 mg/kg, oral
  change in vivo at 50 mg/kg: -20%
[5]; 75 mg/kg, oral
  change in vivo at 75 mg/kg: -40%
[5]; 100 mg/kg, oral
  change in vivo at 100 mg/kg: -60%
[5]; 150 mg/kg, oral
  change in vivo at 150 mg/kg: -70%
despair; 50 mg/kg
  Test of despair: % of antagonism: -18%
despair; 100 mg/kg
  Test of despair: % of antagonism: -41%
despair; 200 mg/kg
  Test of despair: % of antagonism: -53%
[7]; 75 mg/kg
  % of inhibition of salivation induced by pilocarpine: -39%
[7]; 100 mg/kg
  % of inhibition of salivation induced by pilocarpine: -48%
[7]; 200 mg/kg
  % of inhibition of salivation induced by pilocarpine: -76%

## CN(C)CCc1cc2c(cc1N=Cc1cccs1)OCO2 [COR 01 151]
[1]; 750 mg/kg
  mortality at 336 h: 60%
Swiss mice; 150 mg/kg
  % of mortality: 0%
Swiss mice; 250 mg/kg
  % of mortality: 10%
Swiss mice; 500 mg/kg
  % of mortality: 40%
Phenylbenzoquinone (PBQ); 50 mg/kg, male Swiss mouse, PBQ
  % of analgesic activity: 41%
Phenylbenzoquinone (PBQ)
  inhibition in vivo at 100 mg/kg: 79%
[2]; Mus musculus, po
  change in vivo at 100 mg/kg: -41%

## CN(C)CCc1cc2c(cc1N=Cc1ccc[n+]([O-])c1)OCO2 [COR 01 203]
[1]; 1000 mg/kg
  mortality at 336 h: 0%
[1]; 1500 mg/kg
  mortality at 336 h: 10%
[1]; 2000 mg/kg
  mortality at 336 h: 40%
Phenylbenzoquinone (PBQ); read-out: % of analgesic activity, 50 mg/kg, male Swiss mouse, PBQ
  inhibition in vivo at 50 mg/kg: 0%
Phenylbenzoquinone (PBQ)
  inhibition in vivo at 100 mg/kg: 36%
Phenylbenzoquinone (PBQ); [8]
  inhibition in vivo at 200 mg/kg: 47%
[4]; po
  change in vivo at 100 mg/kg: -33%
  change in vivo at 200 mg/kg: -27%
[5]; po
  change in vivo at 50 mg/kg: -70%
  change in vivo at 100 mg/kg: -50%
  change in vivo at 200 mg/kg: -20%
[7]; 50 mg/kg
  % of inhibition of salivation induced by pilocarpine: -32%
[7]; 200 mg/kg
  % of inhibition of salivation induced by pilocarpine: -30%

## C(=Nc1cc2c(cc1CCN1CCCCC1)OCO2)c1cccnc1 [COR 01 202]
[1]; 750 mg/kg
  mortality at 336 h: 30%
Swiss mice; 500 mg/kg
  % of mortality: 10%
Swiss mice; 1000 mg/kg
  % of mortality: 60%
Phenylbenzoquinone (PBQ); [9]
  % of analgesic activity: 0%
Phenylbenzoquinone (PBQ); 200 mg/kg, male Swiss mouse, PBQ
  % of analgesic activity: 33%
Phenylbenzoquinone (PBQ); 50 mg/kg, male Swiss mouse, PBQ, read-out: % of analgesic activity
  inhibition in vivo at 50 mg/kg: 2%
[3]; 25 mg/kg
  % of activity vis-a-vis the stereotype induced by apomorphine: -35%
[3]; 50 mg/kg
  % of activity vis-a-vis the stereotype induced by apomorphine: -32%
[3]; 75 mg/kg
  % of activity vis-a-vis the stereotype induced by apomorphine: -29%
[3]; 200 mg/kg
  % of activity vis-a-vis the stereotype induced by apomorphine: -20%
[3]
  antagonism vis-a-vis the stereotype with apomorphine: manifest an antagonism
[6]; 25 mg/kg
  % of increase in the number of displacements of the animal: +48%
[6]; 50 mg/kg
  % of increase in the number of displacements of the animal: +96%
[5]; oral
  change in vivo at 25 mg/kg: 0%
[5]; 50 mg/kg, oral
  change in vivo at 50 mg/kg: -67%
[5]; 75 mg/kg, oral
  change in vivo at 75 mg/kg: -44%
despair; 50 mg/kg
  Test of despair: % of antagonism: -49%
despair; 100 mg/kg
  Test of despair: % of antagonism: -67%

## C(=Nc1cc2c(cc1CCN1CCCCC1)OCO2)c1cccnc1 [COR 01 174]
[1]; 2000 mg/kg
  mortality at 336 h: 50%
Swiss mice; 500 mg/kg
  % of mortality: 0%
Swiss mice; 1000 mg/kg
  % of mortality: 10%
Phenylbenzoquinone (PBQ); [9]
  % of analgesic activity: 48%
Phenylbenzoquinone (PBQ); 200 mg/kg, male Swiss mouse, PBQ, read-out: % of analgesic activity
  inhibition in vivo at 200 mg/kg: 18%

## Cc1ccc(C=Nc2cc3c(cc2CCN(C)C)OCO3)cc1 [COR 01 206]
[1]; 1500 mg/kg
  mortality at 336 h: 0%
[1]; 2000 mg/kg
  mortality at 336 h: 50%
[2]; Mus musculus, po
  change in vivo at 25 mg/kg: -18%
  change in vivo at 50 mg/kg: -28%
  change in vivo at 100 mg/kg: -63%
[3]; 50 mg/kg
  % of activity vis-a-vis the stereotype induced by apomorphine: -53%
[3]; 100 mg/kg
  % of activity vis-a-vis the stereotype induced by apomorphine: -71%
[3]; 200 mg/kg
  % of activity vis-a-vis the stereotype induced by apomorphine: -22%
[3]
  antagonism vis-a-vis the stereotype with apomorphine: manifest an antagonism

## CN(C)CCc1cc2c(cc1N=Cc1ccccc1)OCO2 [COR 01 209]
[1]; 1000 mg/kg
  mortality at 336 h: 0%
[1]; 1500 mg/kg
  mortality at 336 h: 40%
[1]; 2000 mg/kg
  mortality at 336 h: 60%
Phenylbenzoquinone (PBQ); [8]
  inhibition in vivo at 200 mg/kg: 17%
[2]; Mus musculus, po
  change in vivo at 5 mg/kg: -28%
  change in vivo at 25 mg/kg: -38%
  change in vivo at 50 mg/kg: -32%
  change in vivo at 100 mg/kg: -37%
  change in vivo at 200 mg/kg: -20%
[3]; 50 mg/kg
  % of activity vis-a-vis the stereotype induced by apomorphine: -54%
[3]; 100 mg/kg
  % of activity vis-a-vis the stereotype induced by apomorphine: -51%
[3]; 200 mg/kg
  % of activity vis-a-vis the stereotype induced by apomorphine: -42%
[3]
  antagonism vis-a-vis the stereotype with apomorphine: manifest an antagonism
[4]; po
  change in vivo at 200 mg/kg: -45%
[5]; po
  change in vivo at 50 mg/kg: -60%
  change in vivo at 75 mg/kg: -60%
  change in vivo at 100 mg/kg: -55%
  change in vivo at 150 mg/kg: -60%
  change in vivo at 200 mg/kg: -30%

Reference: patent publication US4333930A, “Orthoarylideneaminophenethylamines and pharmaceutical compositions” (priority 1980, dated 1982)
